How the values were obtained:
[1] = test system: AT1R; details: Barbadin 100 µM; cited from earlier work
[2] = molecular target: T1, 384 kinases from the human genome (Homo sapiens, UniProt O43293); experiment: KINOMEscan kinase binding assay; details: kinase DAPK3 (Entrez DAPK3)
T1 construct: purchased Eurofin/DiscoverX
Excerpt: (§1) We reasoned that because internalizing AT1R and its targeting to intracellular compartments can support continued MAPK signaling, and since 21 inhibits receptor internalization, it should also impede to some extent ERK1/2 activation. […] Receptor-mediated ERK1/2 signaling can involve upstream kinases such as PKC, BRAF, and MEK1[35],[36]. […] To exclude other kinases potentially involved in ERK1/2 and Akt activation as targets of 21, we ran a kinase binding assay (KINOMEscan™) on 384 kinases from the human genome. Remarkably, a very high selectivity score S(10) of 0.008 was found (Supplementary Data 3).
(§2) The chemical library used for initial screening was from Chembridge DiverSet™ (60,000 compounds), Maybridge HitFinder™ (16,000 compounds), Maybridge (selected, 16,000 compounds), SPECS (selected, 16000 compounds), Microsource Discovery Spectrum (2000 compounds), Biomol (natural products, 500 compounds), Prestwick (commercialized products, 1120 compounds), SIGMA LopacTM (1280 compounds) and internal collection (synthesized at Université de Montréal-IRIC, ~4000 compounds). Compounds were all assigned an Université de Montréal number (UM) for internal use. Screen was performed at IRIC HTS facility. KINOMEscan™ profiling was serviced by Eurofin/DiscoverX (San Diego, USA).
(§3) Description of Additional Supplementary Files […]
(§4) File Name: Supplementary Data 3
(§5) Description: KINOMEscan results. Compound 21’s effect was tested on 384 kinases. Data represent kinases binding to their ligands in presence of 10 µM of 21, as compared to DMSO (100%). Results are from one experiment and represent the average of duplicates. Three kinases (FLT3, KIT, and PDGFRB) out of 384 were more than 90% affected (selectivity score S(10) of 0.008). […]

[3] = molecular target: T2, 384 kinases from the human genome (Homo sapiens, UniProt P11802); experiment: KINOMEscan kinase binding assay
T2 construct: purchased Eurofin/DiscoverX
T2 sequence (P11802 whole entry): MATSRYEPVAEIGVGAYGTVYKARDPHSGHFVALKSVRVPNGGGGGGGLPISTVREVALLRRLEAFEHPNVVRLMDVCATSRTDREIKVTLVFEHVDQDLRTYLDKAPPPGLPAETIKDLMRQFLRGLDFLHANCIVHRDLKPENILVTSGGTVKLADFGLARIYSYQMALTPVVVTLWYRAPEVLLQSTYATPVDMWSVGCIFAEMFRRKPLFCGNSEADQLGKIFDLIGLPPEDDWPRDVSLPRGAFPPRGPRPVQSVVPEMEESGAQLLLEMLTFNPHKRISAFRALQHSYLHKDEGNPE
Excerpt: as §1, §2, §3, §4, §5

[4] = molecular target: T3, 384 kinases from the human genome (Homo sapiens, UniProt P12931); experiment: KINOMEscan kinase binding assay
T3 construct: purchased Eurofin/DiscoverX
T3 sequence (P12931 whole entry): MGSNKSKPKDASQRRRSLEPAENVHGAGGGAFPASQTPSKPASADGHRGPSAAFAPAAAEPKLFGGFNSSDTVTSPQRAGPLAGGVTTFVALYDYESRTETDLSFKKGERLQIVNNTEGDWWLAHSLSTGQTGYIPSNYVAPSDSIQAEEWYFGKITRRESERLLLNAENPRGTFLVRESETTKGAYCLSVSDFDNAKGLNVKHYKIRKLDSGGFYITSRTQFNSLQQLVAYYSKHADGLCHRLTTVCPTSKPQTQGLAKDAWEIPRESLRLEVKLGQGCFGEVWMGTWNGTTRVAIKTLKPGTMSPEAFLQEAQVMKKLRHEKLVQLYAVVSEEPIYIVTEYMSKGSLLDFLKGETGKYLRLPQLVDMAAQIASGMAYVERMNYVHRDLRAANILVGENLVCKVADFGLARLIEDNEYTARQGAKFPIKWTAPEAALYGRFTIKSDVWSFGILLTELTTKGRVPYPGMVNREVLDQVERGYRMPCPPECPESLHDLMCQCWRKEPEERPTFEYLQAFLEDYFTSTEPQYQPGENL
Excerpt: as §1, §2, §3, §4, §5

[5] = molecular target: T4, 384 kinases from the human genome (Homo sapiens, UniProt P24941); experiment: KINOMEscan kinase binding assay; details: kinase CDK2 (Entrez CDK2)
T4 construct: purchased Eurofin/DiscoverX
Excerpt: as §1, §2, §3, §4, §5

[6] = molecular target: T5, 384 kinases from the human genome (Homo sapiens, UniProt P33981); experiment: KINOMEscan kinase binding assay; details: kinase TTK (Entrez TTK)
T5 construct: purchased Eurofin/DiscoverX
T5 sequence (P33981 whole entry): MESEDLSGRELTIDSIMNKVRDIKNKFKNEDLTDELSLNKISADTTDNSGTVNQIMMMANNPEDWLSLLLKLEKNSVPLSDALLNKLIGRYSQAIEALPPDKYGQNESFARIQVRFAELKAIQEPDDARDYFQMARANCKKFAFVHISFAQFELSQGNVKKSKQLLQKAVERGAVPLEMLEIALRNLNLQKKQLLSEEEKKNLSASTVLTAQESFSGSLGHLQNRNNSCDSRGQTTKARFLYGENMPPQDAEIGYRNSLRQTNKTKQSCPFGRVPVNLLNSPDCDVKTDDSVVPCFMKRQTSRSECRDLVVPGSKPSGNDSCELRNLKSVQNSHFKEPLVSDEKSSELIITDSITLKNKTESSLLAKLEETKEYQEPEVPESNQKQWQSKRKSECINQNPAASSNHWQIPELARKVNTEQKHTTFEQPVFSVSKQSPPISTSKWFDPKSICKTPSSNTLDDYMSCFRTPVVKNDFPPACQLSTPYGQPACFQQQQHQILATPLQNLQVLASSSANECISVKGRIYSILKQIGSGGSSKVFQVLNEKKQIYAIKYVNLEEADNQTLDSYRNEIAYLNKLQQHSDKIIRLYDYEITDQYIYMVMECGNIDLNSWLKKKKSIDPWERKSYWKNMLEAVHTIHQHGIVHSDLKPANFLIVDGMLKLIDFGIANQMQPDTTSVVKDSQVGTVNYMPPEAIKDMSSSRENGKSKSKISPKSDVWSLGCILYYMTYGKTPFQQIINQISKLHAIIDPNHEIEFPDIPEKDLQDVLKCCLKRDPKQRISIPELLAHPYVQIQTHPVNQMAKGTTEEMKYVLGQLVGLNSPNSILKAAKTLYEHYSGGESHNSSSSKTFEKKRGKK
Excerpt: as §1, §2, §3, §4, §5

[7] = molecular target: T6, 384 kinases from the human genome (Homo sapiens, UniProt P49760); experiment: KINOMEscan kinase binding assay; details: kinase CLK2 (Entrez CLK2)
T6 construct: purchased Eurofin/DiscoverX
T6 sequence (P49760 whole entry): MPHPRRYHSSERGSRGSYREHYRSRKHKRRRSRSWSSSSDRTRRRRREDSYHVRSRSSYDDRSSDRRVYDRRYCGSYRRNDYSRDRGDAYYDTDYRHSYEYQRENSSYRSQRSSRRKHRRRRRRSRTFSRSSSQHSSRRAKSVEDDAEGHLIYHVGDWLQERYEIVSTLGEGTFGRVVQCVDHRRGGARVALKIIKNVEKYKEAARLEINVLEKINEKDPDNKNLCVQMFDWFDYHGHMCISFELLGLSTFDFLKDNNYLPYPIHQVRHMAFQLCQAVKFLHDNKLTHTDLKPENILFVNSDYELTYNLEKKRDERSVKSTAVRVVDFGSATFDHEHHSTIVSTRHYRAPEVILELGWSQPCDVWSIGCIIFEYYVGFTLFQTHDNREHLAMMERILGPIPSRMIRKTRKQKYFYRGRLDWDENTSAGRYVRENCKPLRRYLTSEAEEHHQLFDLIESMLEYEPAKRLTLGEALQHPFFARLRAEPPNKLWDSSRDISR
Excerpt: as §1, §2, §3, §4, §5

[8] = molecular target: T7, 384 kinases from the human genome (Homo sapiens, UniProt P50750); experiment: KINOMEscan kinase binding assay; details: kinase CDK9 (Entrez CDK9)
T7 construct: purchased Eurofin/DiscoverX
T7 sequence (P50750 whole entry): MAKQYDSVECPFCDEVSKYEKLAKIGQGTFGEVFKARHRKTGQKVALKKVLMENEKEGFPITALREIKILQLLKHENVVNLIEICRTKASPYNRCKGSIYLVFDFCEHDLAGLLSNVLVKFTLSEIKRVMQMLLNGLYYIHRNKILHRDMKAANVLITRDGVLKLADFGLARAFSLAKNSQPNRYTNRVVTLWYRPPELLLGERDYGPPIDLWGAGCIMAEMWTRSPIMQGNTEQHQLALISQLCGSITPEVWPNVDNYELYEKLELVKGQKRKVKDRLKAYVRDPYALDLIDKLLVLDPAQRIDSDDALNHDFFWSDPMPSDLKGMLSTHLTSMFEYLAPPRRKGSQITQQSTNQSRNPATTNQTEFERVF
Excerpt: as §1, §2, §3, §4, §5

[9] = molecular target: T8, 384 kinases from the human genome (Homo sapiens, UniProt P51817); experiment: KINOMEscan kinase binding assay; details: kinase PRKX (Entrez PRKX)
T8 construct: purchased Eurofin/DiscoverX
Excerpt: as §1, §2, §3, §4, §5

[10] = molecular target: T9, 384 kinases from the human genome (Homo sapiens, UniProt P68400); experiment: KINOMEscan kinase binding assay; details: kinase CSNK2A1 (Entrez CSNK2A1)
T9 construct: purchased Eurofin/DiscoverX
T9 sequence (P68400 whole entry): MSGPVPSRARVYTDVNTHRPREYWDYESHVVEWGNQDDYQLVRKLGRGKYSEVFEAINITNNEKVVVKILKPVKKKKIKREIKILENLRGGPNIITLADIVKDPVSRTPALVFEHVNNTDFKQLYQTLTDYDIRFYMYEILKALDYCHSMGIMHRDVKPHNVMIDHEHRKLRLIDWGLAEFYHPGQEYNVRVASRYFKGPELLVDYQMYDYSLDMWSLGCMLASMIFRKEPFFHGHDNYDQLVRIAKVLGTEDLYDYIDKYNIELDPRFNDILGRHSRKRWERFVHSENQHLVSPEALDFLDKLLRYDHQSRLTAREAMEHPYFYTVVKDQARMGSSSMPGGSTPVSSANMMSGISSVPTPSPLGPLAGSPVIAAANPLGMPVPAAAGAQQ
Excerpt: as §1, §2, §3, §4, §5

[11] = molecular target: T10, 384 kinases from the human genome (Homo sapiens, UniProt Q04771); experiment: KINOMEscan kinase binding assay; details: kinase ACVR1 (Entrez ACVR1)
T10 construct: purchased Eurofin/DiscoverX
T10 sequence (Q04771 21-509): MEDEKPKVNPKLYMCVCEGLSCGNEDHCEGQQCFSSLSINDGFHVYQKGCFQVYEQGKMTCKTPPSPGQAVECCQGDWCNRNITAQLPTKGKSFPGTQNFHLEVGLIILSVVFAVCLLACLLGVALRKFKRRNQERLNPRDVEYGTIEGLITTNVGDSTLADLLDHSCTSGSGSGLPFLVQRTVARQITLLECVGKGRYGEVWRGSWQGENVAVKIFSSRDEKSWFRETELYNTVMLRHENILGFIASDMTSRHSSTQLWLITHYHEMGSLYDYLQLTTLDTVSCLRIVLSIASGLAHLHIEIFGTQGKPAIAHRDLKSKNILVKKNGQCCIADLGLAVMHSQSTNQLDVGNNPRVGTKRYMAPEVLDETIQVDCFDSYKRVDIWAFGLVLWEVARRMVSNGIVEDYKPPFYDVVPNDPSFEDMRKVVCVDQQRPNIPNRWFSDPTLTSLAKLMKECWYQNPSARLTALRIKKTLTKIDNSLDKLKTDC
Excerpt: as §1, §2, §3, §4, §5

[12] = molecular target: T11, 384 kinases from the human genome (Homo sapiens, UniProt Q15831); experiment: KINOMEscan kinase binding assay; details: kinase LKB1 (Entrez STK11)
T11 construct: purchased Eurofin/DiscoverX
Excerpt: as §1, §2, §3, §4, §5

[13] = molecular target: T12, 384 kinases from the human genome (Homo sapiens, UniProt Q16539); experiment: KINOMEscan kinase binding assay; details: kinase p38-alpha (Entrez MAPK14)
T12 construct: purchased Eurofin/DiscoverX
Excerpt: as §1, §2, §3, §4, §5

[14] = molecular target: T13, 384 kinases from the human genome (Homo sapiens, UniProt Q92630); experiment: KINOMEscan kinase binding assay; details: kinase DYRK2 (Entrez DYRK2)
T13 construct: purchased Eurofin/DiscoverX
Excerpt: as §1, §2, §3, §4, §5

[15] = molecular target: T14, 384 kinases from the human genome (Homo sapiens, UniProt Q96L34); experiment: KINOMEscan kinase binding assay; details: kinase MARK4 (Entrez MARK4)
T14 construct: purchased Eurofin/DiscoverX
T14 sequence (Q96L34 whole entry): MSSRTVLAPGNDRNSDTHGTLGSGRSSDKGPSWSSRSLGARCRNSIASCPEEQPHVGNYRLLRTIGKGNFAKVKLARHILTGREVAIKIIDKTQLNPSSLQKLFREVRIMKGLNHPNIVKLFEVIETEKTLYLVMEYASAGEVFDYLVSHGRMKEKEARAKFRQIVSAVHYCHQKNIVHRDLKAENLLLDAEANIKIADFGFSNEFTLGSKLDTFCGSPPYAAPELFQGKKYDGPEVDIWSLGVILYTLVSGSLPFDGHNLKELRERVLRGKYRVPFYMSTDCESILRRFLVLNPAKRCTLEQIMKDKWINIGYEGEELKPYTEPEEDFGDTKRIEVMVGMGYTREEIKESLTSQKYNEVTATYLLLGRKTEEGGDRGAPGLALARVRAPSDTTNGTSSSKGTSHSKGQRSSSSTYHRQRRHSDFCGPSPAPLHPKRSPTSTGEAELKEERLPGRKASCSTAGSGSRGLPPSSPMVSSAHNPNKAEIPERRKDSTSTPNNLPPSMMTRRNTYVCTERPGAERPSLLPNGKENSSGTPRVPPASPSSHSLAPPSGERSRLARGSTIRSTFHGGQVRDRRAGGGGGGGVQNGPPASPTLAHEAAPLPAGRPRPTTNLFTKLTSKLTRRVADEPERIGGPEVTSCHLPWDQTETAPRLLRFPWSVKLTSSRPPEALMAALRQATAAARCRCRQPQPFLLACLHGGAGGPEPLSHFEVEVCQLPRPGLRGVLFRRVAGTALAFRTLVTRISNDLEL
Excerpt: as §1, §2, §3, §4, §5

[16] = molecular target: T15, 384 kinases from the human genome (Homo sapiens, UniProt Q9NWZ3); experiment: KINOMEscan kinase binding assay; details: kinase IRAK4 (Entrez IRAK4)
T15 construct: purchased Eurofin/DiscoverX
T15 sequence (Q9NWZ3 whole entry): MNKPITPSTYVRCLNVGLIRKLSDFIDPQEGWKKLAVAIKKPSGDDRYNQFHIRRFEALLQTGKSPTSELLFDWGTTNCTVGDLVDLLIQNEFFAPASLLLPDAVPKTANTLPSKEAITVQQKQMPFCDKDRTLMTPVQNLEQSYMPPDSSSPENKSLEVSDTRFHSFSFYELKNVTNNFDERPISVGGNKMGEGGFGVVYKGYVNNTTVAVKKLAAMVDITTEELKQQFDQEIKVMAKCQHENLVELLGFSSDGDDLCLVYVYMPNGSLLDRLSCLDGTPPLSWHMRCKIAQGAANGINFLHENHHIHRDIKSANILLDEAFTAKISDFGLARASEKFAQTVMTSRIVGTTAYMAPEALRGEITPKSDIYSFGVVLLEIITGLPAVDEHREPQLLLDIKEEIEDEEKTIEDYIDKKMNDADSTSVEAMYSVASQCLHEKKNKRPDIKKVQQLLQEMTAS
Excerpt: as §1, §2, §3, §4, §5

[17] = molecular target: T16, 384 kinases from the human genome (Homo sapiens, UniProt Q9UQ88); experiment: KINOMEscan kinase binding assay; details: kinase CDC2L2 (Entrez CDC2L2)
T16 construct: purchased Eurofin/DiscoverX
Excerpt: as §1, §2, §3, §4, §5

[18] = molecular target: T17, 384 kinases from the human genome (Homo sapiens, UniProt Q9Y463); experiment: KINOMEscan kinase binding assay; details: kinase DYRK1B (Entrez DYRK1B)
T17 construct: purchased Eurofin/DiscoverX
Excerpt: as §1, §2, §3, §4, §5

[19] = molecular target: T18, 384 kinases from the human genome (Homo sapiens, UniProt Q9Y4K4); experiment: KINOMEscan kinase binding assay; details: kinase MAP4K5 (Entrez MAP4K5)
T18 construct: purchased Eurofin/DiscoverX
Excerpt: as §1, §2, §3, §4, §5

[20] = molecular target: H-Ras (Homo sapiens, UniProt P01112); experiment: In vitro mant-GTP exchange assay, purified H-Ras with 40 mM EDTA; type: biochemical; parameters: the cDNA of H-Ras (full length) was obtained by RT-PCR of HEK293SL; GST (N); made in house; host or cells: E. coli BL21
Sequence of H-Ras (P01112 whole entry): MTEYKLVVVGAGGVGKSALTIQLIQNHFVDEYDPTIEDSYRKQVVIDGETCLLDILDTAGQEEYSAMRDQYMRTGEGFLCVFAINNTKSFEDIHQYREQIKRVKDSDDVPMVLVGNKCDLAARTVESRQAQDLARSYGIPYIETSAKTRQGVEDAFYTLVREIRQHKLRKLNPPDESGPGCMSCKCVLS
Method: Ras activity was assessed in a 384-well black bottom plate using the mant-GTP exchange factor assay that measures the uptake of the fluorescent nucleotide analog N-methylanthraniloyl-GTP (mant-GTP) into GTPases. For Ras activation, 2X exchange buffer, 1.66 μg of purified pGEX-6P-1-H-Ras or pGEX-6P-1-K-Ras-WT or pGEX-6P-1-K-Ras-Y32A were added per well in presence of DMSO, different concentrations of Rasarfin (as indicated) or 50 µM of compounds 21.4, 21.7, or 21.8. Using the Infinite 200 Pro plate reader (Tecan) with filters set at 360 nm and 440 nm for detecting the excitation and emissions, respectively, and temperature set at 20 °C, 5 readings were recorded every 5 s before the addition of either H2O, 40 mM EDTA or 0.66 μg purified SOS1. The fluorescence of mant-GTP uptake was measured every 30 sec for 30 min and quantified as the delta relative fluorescence units (RFU), which was calculated as the RFU post-addition minus the 5 averaged RFU pre-addition, per condition.

## Nn1cnc2scc(-c3ccc(Cc4ccccc4)cc3)c2c1=O [Barbadin, reference compound]
[1]
  receptor internalization: blocked receptor internalization

## CC(C)C(=O)N1CCN(c2ccc(NC(=O)c3cc4ccccc4o3)cc2Cl)CC1 [Compound 21]
[2]
  Percent Control: 100%
[3]; kinase CDK4 (Entrez CDK4)
  Percent Control: 97%
[3]; kinase CDK4-cyclinD1 (Entrez CDK4)
  Percent Control: 86%
[3]; kinase CDK4-cyclinD3 (Entrez CDK4)
  Percent Control: 96%
[4]; 10 µM of 21
  binding to Src: failed to bind
[4]; kinase SRC (Entrez SRC)
  Percent Control: 100%
[5]
  Percent Control: 100%
[6]
  Percent Control: 92%
[7]
  Percent Control: 100%
[8]
  Percent Control: 99%
[9]
  Percent Control: 100%
[10]
  Percent Control: 100%
[11]
  Percent Control: 70%
[12]
  Percent Control: 67%
[13]
  Percent Control: 100%
[14]
  Percent Control: 94%
[15]
  Percent Control: 98%
[16]
  Percent Control: 76%
[17]
  Percent Control: 95%
[18]
  Percent Control: 79%
[19]
  Percent Control: 80%
[20]
  mant-GTP binding to purified H-Ras promoted by EDTA: also inhibited mant-GTP binding promoted by EDTA

Reference: PMC8333425, “Discovery of a dual Ras and ARF6 inhibitor from a GPCR endocytosis screen” (Nature Communications, 2021)
